Assays:
human RXFP4 [1] = target: T1, human RXFP4 (Homo sapiens, UniProt Q8TDU9); assay: Receptor activation assay, CRE-controlled NanoLuc reporter; type: cell-based; conditions: for fold lower activation potency towards RXFP4 compared with R3/I5: relative to R3/I5
T1 construct: expressed in transfected cells; host or cells: HEK293T
From the text: (§1) HEK293T cells transiently cotransfected with a CRE-controlled NanoLuc reporter vector and the expression construct of human RXFP3 or human RXFP4 were used for activation assays. The measured bioluminescence data are expressed as means ± SE (n = 3) and fitted to sigmoidal or linear curves using SigmaPlot 10.0.
(§2) Briefly, HEK293T cells were transiently cotransfected with the NanoLuc reporter vector pNL1.2/CRE and the expression construct of human RXFP3 or human RXFP4. On the next day, transfected cells were trypsinised, seeded into 96-well plates, and continuously cultured for 24–36 h to ~90% confluence. To initiate activation assays, medium was removed and activation solution (serum-free DMEM medium plus 1% bovine serum albumin) containing 1.0 μM of forskolin and various concentrations of peptide was added (100 μl/well). After continuous culturing at 37 °C for 4 h, activation solution was removed and cells were lysed with lysis solution (100 μl/well, Promega). Cell lysates were then transferred to a white opaque 96-well plate (50 μl/well), mixed with freshly diluted substrate (50 μl/well), and bioluminescence was immediately measured on a SpectraMax M5 plate reader (Molecular Devices) in luminescence mode. The measured data were expressed as means ± SE (n = 3) and fitted to sigmoidal or linear curves using SigmaPlot 10.0 software.

human RXFP3 [2] = target: T2, human RXFP3 (Homo sapiens, UniProt Q9NSD7); assay: as above; type: cell-based; conditions: for activation potency towards RXFP3, in words: compared with R3/I5
T2 construct: expressed in transfected cells; host or cells: HEK293T
T2 sequence (Q9NSD7 1-469): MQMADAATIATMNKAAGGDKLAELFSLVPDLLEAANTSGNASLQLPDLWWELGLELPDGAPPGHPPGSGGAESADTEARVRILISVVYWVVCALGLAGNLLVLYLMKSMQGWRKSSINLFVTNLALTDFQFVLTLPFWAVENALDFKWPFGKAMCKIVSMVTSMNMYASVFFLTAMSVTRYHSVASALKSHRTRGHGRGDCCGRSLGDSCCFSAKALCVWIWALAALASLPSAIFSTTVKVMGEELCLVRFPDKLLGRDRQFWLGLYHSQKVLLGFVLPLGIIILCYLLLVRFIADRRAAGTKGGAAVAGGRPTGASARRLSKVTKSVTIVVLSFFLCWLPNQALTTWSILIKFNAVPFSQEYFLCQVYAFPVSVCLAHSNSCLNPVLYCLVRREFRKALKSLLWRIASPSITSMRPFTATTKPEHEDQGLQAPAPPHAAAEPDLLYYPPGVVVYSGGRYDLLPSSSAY
From the text: as §1, §2

human RXFP4 [3] = target: T1, human RXFP4; assay: Receptor binding assay, NanoLuc-conjugated R3/I5 tracer competition; conditions: for binding potency towards RXFP4, in words: compared with R3/I5; for fold lower binding potency towards RXFP4 compared with R3/I5: relative to R3/I5
Experimental: (§3) Specific binding data are expressed as means ± SE (n = 3) and fitted to sigmoidal curves using SigmaPlot 10.0 software.
(§4) Briefly, HEK293T cells were transiently transfected with an expression construct of human RXFP3 or human RXFP4. On the next day, transfected cells were trypsinised, seeded into 96-well plates, and continuously cultured for 24–36 h to ~100% confluence. […] After incubation at 21 °C for 2 h, binding solution was removed and cells were washed twice with ice-cold phosphate-buffered saline (200 μl/well for each wash). Thereafter, cells were lysed by lysis solution (100 μl/well, Promega, Madison, WI, USA) and cell lysates were transferred to a white opaque 96-well plate (50 μl/well). After mixing with freshly diluted substrate (50 μl/well), bioluminescence was immediately measured on a SpectraMax M5 plate reader (Molecular Devices, Sunnyvale, CA, USA) in luminescence mode. […] The calculated specific binding data were expressed as means ± standard error (SE; n = 3) and fitted to sigmoidal curves using SigmaPlot 10.0 software.

human RXFP3 [4] = target: T2, human RXFP3; assay: as above; conditions: for binding potency towards RXFP3, in words: compared with R3/I5
Experimental: as §3, §4

[5] = CRE-NanoLuc reporter, human RXFP3

T1 sequence (Q8TDU9 whole entry): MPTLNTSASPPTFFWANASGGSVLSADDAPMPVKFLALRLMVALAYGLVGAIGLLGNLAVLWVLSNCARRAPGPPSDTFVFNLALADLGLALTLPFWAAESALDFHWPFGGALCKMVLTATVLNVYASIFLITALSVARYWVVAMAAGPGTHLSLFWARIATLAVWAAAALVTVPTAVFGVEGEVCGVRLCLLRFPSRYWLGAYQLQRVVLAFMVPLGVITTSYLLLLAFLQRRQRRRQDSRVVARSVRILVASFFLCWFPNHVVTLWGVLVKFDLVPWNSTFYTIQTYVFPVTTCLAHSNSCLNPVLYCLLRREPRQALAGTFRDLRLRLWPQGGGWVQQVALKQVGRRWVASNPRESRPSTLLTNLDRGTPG

| Compound | activation potency towards RXFP4, in words (human RXFP4 [1]; compared with R3/I5) | activation potency towards RXFP3, in words (human RXFP3 [2]; [5]) | binding potency towards RXFP4, in words (human RXFP4 [3]) | binding potency towards RXFP3, in words (human RXFP3 [4]) | fold lower activation potency towards RXFP4 compared with R3/I5 (human RXFP4 [1]) | fold higher activation potency towards RXFP3 than towards RXFP4 (human RXFP3 [2]; selectivity RXFP3 over RXFP4, from activation assays) | fold lower binding potency towards RXFP4 compared with R3/I5 (human RXFP4 [3]) | fold lower binding potency for RXFP3 compared with R3/I5 (human RXFP3 [4]; relative to R3/I5) | fold lower activation potency towards RXFP3 compared with R3/I5 (human RXFP3 [2]; CRE-NanoLuc reporter, human RXFP3, relative to R3/I5) |
| --- | --- | --- | --- | --- | --- | --- | --- | --- | --- |
| CC[C@H](C)[C@@H]1NC(=O)[C@H](Cc2ccccc2)NC(=O)[C@H](CCC(=O)O)NC(=O)[C@H](CCCNC(=N)N)NC(=O)CNC(=O)[C@@H](NC(=O)[C@H](CC(C)C)NC(=O)[C@H](CCCNC(=N)N)NC(=O)[C@@H](NC(=O)CNC(=O)[C@H](Cc2ccc(O)cc2)NC(=O)[C@@H]2CCCN2C(=O)[C@H](C)NC(=O)[C@H](C)NC(=O)[C@H](CCCNC(=N)N)NC(=O)[C@@H]2CCC(=O)N2)C(C)C)CSSC[C@@H]2NC(=O)[C@@H](NC(=O)[C@H](CC(C)C)NC(=O)[C@@H](NC(=O)[C@H](CCC(N)=O)NC(=O)[C@H](CC(C)C)NC(=O)[C@H](CC(=O)O)NC(=O)[C@H](CCC(N)=O)NC(=O)[C@H](CCCNC(=N)N)NC(=O)[C@H](CO)NC(=O)[C@H](CCCNC(=N)N)NC(=O)[C@H](CCCNC(=N)N)NC(=O)[C@H](CO)NC(=O)[C@@H](N)CCCNC(=N)N)[C@@H](C)O)CSSC[C@H](NC(=O)CNC(=O)[C@H](CC(=O)O)NC(=O)[C@H]([C@@H](C)O)NC2=O)C(=O)N[C@@H](CO)C(=O)N[C@@H](CCSC)C(=O)N[C@@H]([C@@H](C)O)C(=O)N[C@@H](CC(=O)O)C(=O)N[C@@H](CC(C)C)C(=O)N[C@@H](CO)C(=O)N[C@@H](C)C(=O)N[C@@H](CC(C)C)C(=O)N[C@H](C(=O)O)CSSC[C@@H](C(=O)NCC(=O)N[C@@H](CCC(=O)O)C(=O)N[C@@H](CO)C(=O)N[C@@H](CCCNC(=N)N)C(=O)N[C@@H](Cc2c[nH]c3ccccc23)C(=O)O)NC(=O)[C@H]([C@@H](C)O)NC(=O)[C@H](Cc2ccccc2)NC(=O)[C@H]([C@@H](C)CC)NC(=O)[C@H](C(C)C)NC(=O)[C@H](C)NC(=O)[C@H](CCCNC(=N)N)NC1=O [[G(B24)E]R3/I5] | lost all activation potency | lost all activation potency | retained low binding potency | retained low binding potency | – | – | – | – | – |
| CC[C@H](C)[C@@H]1NC(=O)[C@H](Cc2ccccc2)NC(=O)[C@H](CCC(=O)O)NC(=O)[C@H](CCCNC(=N)N)NC(=O)CNC(=O)[C@@H](NC(=O)[C@H](CC(C)C)NC(=O)[C@H](CCCNC(=N)N)NC(=O)[C@@H](NC(=O)CNC(=O)[C@H](Cc2ccc(O)cc2)NC(=O)[C@@H]2CCCN2C(=O)[C@H](C)NC(=O)[C@H](C)NC(=O)[C@H](CCCNC(=N)N)NC(=O)[C@@H]2CCC(=O)N2)C(C)C)CSSC[C@@H]2NC(=O)[C@@H](NC(=O)[C@H](CC(C)C)NC(=O)[C@@H](NC(=O)[C@H](CCC(N)=O)NC(=O)[C@H](CC(C)C)NC(=O)[C@H](CC(=O)O)NC(=O)[C@H](CCC(N)=O)NC(=O)[C@H](CCCNC(=N)N)NC(=O)[C@H](CO)NC(=O)[C@H](CCCNC(=N)N)NC(=O)[C@H](CCCNC(=N)N)NC(=O)[C@H](CO)NC(=O)[C@@H](N)CCCNC(=N)N)[C@@H](C)O)CSSC[C@H](NC(=O)CNC(=O)[C@H](CC(=O)O)NC(=O)[C@H]([C@@H](C)O)NC2=O)C(=O)N[C@@H](CO)C(=O)N[C@@H](CCSC)C(=O)N[C@@H]([C@@H](C)O)C(=O)N[C@@H](CC(=O)O)C(=O)N[C@@H](CC(C)C)C(=O)N[C@@H](CO)C(=O)N[C@@H](C)C(=O)N[C@@H](CC(C)C)C(=O)N[C@H](C(=O)O)CSSC[C@@H](C(=O)NCC(=O)N[C@@H](CO)C(=O)N[C@@H](CO)C(=O)N[C@@H](CCCNC(=N)N)C(=O)N[C@@H](Cc2c[nH]c3ccccc23)C(=O)O)NC(=O)[C@H]([C@@H](C)O)NC(=O)[C@H](Cc2ccccc2)NC(=O)[C@H]([C@@H](C)CC)NC(=O)[C@H](C(C)C)NC(=O)[C@H](C)NC(=O)[C@H](CCCNC(=N)N)NC1=O [[G(B24)S]R3/I5] | – | retained full activation and binding potencies | – | retained full activation and binding potencies | 20 fold | 20 fold | 2 fold | – | – |
| CC[C@H](C)[C@@H]1NC(=O)[C@H](Cc2ccccc2)NC(=O)[C@H](CCC(=O)O)NC(=O)[C@H](CCCNC(=N)N)NC(=O)CNC(=O)[C@@H](NC(=O)[C@H](CC(C)C)NC(=O)[C@H](CCCNC(=N)N)NC(=O)[C@@H](NC(=O)CNC(=O)[C@H](Cc2ccc(O)cc2)NC(=O)[C@@H]2CCCN2C(=O)[C@H](C)NC(=O)[C@H](C)NC(=O)[C@H](CCCNC(=N)N)NC(=O)[C@@H]2CCC(=O)N2)C(C)C)CSSC[C@@H]2NC(=O)[C@@H](NC(=O)[C@H](CC(C)C)NC(=O)[C@@H](NC(=O)[C@H](CCC(N)=O)NC(=O)[C@H](CC(C)C)NC(=O)[C@H](CC(=O)O)NC(=O)[C@H](CCC(N)=O)NC(=O)[C@H](CCCNC(=N)N)NC(=O)[C@H](CO)NC(=O)[C@H](CCCNC(=N)N)NC(=O)[C@H](CCCNC(=N)N)NC(=O)[C@H](CO)NC(=O)[C@@H](N)CCCNC(=N)N)[C@@H](C)O)CSSC[C@H](NC(=O)CNC(=O)[C@H](CC(=O)O)NC(=O)[C@H]([C@@H](C)O)NC2=O)C(=O)N[C@@H](CO)C(=O)N[C@@H](CCSC)C(=O)N[C@@H]([C@@H](C)O)C(=O)N[C@@H](CC(=O)O)C(=O)N[C@@H](CC(C)C)C(=O)N[C@@H](CO)C(=O)N[C@@H](C)C(=O)N[C@@H](CC(C)C)C(=O)N[C@H](C(=O)O)CSSC[C@@H](C(=O)N[C@@H](CO)C(=O)N[C@@H](CCCNC(=N)N)C(=O)N[C@@H](Cc2c[nH]c3ccccc23)C(=O)O)NC(=O)[C@H]([C@@H](C)O)NC(=O)[C@H](Cc2ccccc2)NC(=O)[C@H]([C@@H](C)CC)NC(=O)[C@H](C(C)C)NC(=O)[C@H](C)NC(=O)[C@H](CCCNC(=N)N)NC1=O [[∆B23-24]R3/I5] | – | lost all activation potency | – | – | ~ 1000 fold | – | ~ 10 fold | ~ 3 fold | – |
| CC[C@H](C)[C@@H]1NC(=O)[C@H](Cc2ccccc2)NC(=O)[C@H](CCC(=O)O)NC(=O)[C@H](CCCNC(=N)N)NC(=O)CNC(=O)[C@@H](NC(=O)[C@H](CC(C)C)NC(=O)[C@H](CCCNC(=N)N)NC(=O)[C@@H](NC(=O)CNC(=O)[C@H](Cc2ccc(O)cc2)NC(=O)[C@@H]2CCCN2C(=O)[C@H](C)NC(=O)[C@H](C)NC(=O)[C@H](CCCNC(=N)N)NC(=O)[C@@H]2CCC(=O)N2)C(C)C)CSSC[C@@H]2NC(=O)[C@@H](NC(=O)[C@H](CC(C)C)NC(=O)[C@@H](NC(=O)[C@H](CCC(N)=O)NC(=O)[C@H](CC(C)C)NC(=O)[C@H](CC(=O)O)NC(=O)[C@H](CCC(N)=O)NC(=O)[C@H](CCCNC(=N)N)NC(=O)[C@H](CO)NC(=O)[C@H](CCCNC(=N)N)NC(=O)[C@H](CCCNC(=N)N)NC(=O)[C@H](CO)NC(=O)[C@@H](N)CCCNC(=N)N)[C@@H](C)O)CSSC[C@H](NC(=O)CNC(=O)[C@H](CC(=O)O)NC(=O)[C@H]([C@@H](C)O)NC2=O)C(=O)N[C@@H](CO)C(=O)N[C@@H](CCSC)C(=O)N[C@@H]([C@@H](C)O)C(=O)N[C@@H](CC(=O)O)C(=O)N[C@@H](CC(C)C)C(=O)N[C@@H](CO)C(=O)N[C@@H](C)C(=O)N[C@@H](CC(C)C)C(=O)N[C@H](C(=O)O)CSSC[C@@H](C(=O)N[C@@H](CCCNC(=N)N)C(=O)N[C@@H](Cc2c[nH]c3ccccc23)C(=O)O)NC(=O)[C@H]([C@@H](C)O)NC(=O)[C@H](Cc2ccccc2)NC(=O)[C@H]([C@@H](C)CC)NC(=O)[C@H](C(C)C)NC(=O)[C@H](C)NC(=O)[C@H](CCCNC(=N)N)NC1=O [[∆B23-25]R3/I5] | – | – | almost normal binding potency | almost normal binding potency | ~ 30 fold | – | – | – | ~ 30 fold |
